Laboratory results as given in PubChem BioAssay AID1963853 (Molecular Pharmacology Branch, DTP, NCI, 2024).

System: 266295-075-R-J1-PDC spheroid viability
Experiment: Anticancer human tumor 266295-075-R-J1-PDC patient-derived head and neck squamous carcinoma cell line growth inhibition [POLQ]
Conditions: spheroids with HUVEC and MSC; for IC50: curve of first compound; for viability, T/C: stronger effect = lower value
Procedure, shortened: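 PDC + HUVEC + MSC complex spheroids; POLQ inhibitors ± partner drugs; top conc. at/near clinical Cmax, else 10 microM (SN-38 1 microM), half-log dilutions; 37 degrees C, 5% CO2.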

[1] = second compound 0.0316 µM, first compound 0.0316 µM
[2] = second compound 0.0316 µM, first compound 0.1 µM
[3] = second compound 0.0316 µM, first compound 0.316 µM
[4] = second compound 0.0316 µM, first compound 1 µM
[5] = second compound 0.0316 µM, first compound 3.16 µM
[6] = second compound 0.0316 µM, first compound 10 µM
[7] = second compound 0.1 µM, first compound 0.0316 µM
[8] = second compound 0.1 µM, first compound 0.1 µM
[9] = second compound 0.1 µM, first compound 0.316 µM
[10] = second compound 0.1 µM, first compound 1 µM
[11] = second compound 0.1 µM, first compound 3.16 µM
[12] = second compound 0.1 µM, first compound 10 µM
[13] = second compound 0.316 µM, first compound 0.0316 µM
[14] = second compound 0.316 µM, first compound 0.1 µM
[15] = second compound 0.316 µM, first compound 0.316 µM
[16] = second compound 0.316 µM, first compound 1 µM
[17] = second compound 0.316 µM, first compound 3.16 µM
[18] = second compound 0.316 µM, first compound 10 µM
[19] = second compound 1 µM, first compound 0.0316 µM
[20] = second compound 1 µM, first compound 0.1 µM
[21] = second compound 1 µM, first compound 0.316 µM
[22] = second compound 1 µM, first compound 1 µM
[23] = second compound 1 µM, first compound 3.16 µM
[24] = second compound 1 µM, first compound 10 µM
[25] = second compound 3.16 µM, first compound 0.0316 µM
[26] = second compound 3.16 µM, first compound 0.1 µM
[27] = second compound 3.16 µM, first compound 0.316 µM
[28] = second compound 3.16 µM, first compound 1 µM
[29] = second compound 3.16 µM, first compound 3.16 µM
[30] = second compound 3.16 µM, first compound 10 µM
[31] = second compound 10 µM, first compound 0.0316 µM
[32] = second compound 10 µM, first compound 0.1 µM
[33] = second compound 10 µM, first compound 0.316 µM
[34] = second compound 10 µM, first compound 1 µM
[35] = second compound 10 µM, first compound 3.16 µM
[36] = second compound 10 µM, first compound 10 µM
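Also: spheroids exposed to compounds for seven days before readout.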

SMILES: CCc1cc2c(N3CCc4c(cc(Cn5ccnc5)cc4-c4cn(C)nc4C(F)(F)F)C3=O)cc(C)nc2c(OC)n1 + Nc1ccc(C#CCN(C(=O)Cc2ncc(C(F)(F)F)cc2C(F)(F)F)c2ccc(F)cc2)nn1
- IC50 (second compound 0.0316 µM): > 10 µM
- IC50 (second compound 0.1 µM): > 10 µM
- IC50 (second compound 0.316 µM): > 10 µM
- IC50 (second compound 1 µM): > 10 µM
- IC50 (second compound 3.16 µM): > 10 µM
- IC50 (second compound 10 µM): > 10 µM
- viability, T/C [1]: 103%
- viability, T/C [2]: 96.2%
- viability, T/C [3]: 127%
- viability, T/C [4]: 141%
- viability, T/C [5]: 122%
- viability, T/C [6]: 149%
- viability, T/C [7]: 112%
- viability, T/C [8]: 113%
- viability, T/C [9]: 105%
- viability, T/C [10]: 141%
- viability, T/C [11]: 163%
- viability, T/C [12]: 137%
- viability, T/C [13]: 102%
- viability, T/C [14]: 105%
- viability, T/C [15]: 91%
- viability, T/C [16]: 144%
- viability, T/C [17]: 129%
- viability, T/C [18]: 152%
- viability, T/C [19]: 106%
- viability, T/C [20]: 94.2%
- viability, T/C [21]: 96.7%
- viability, T/C [22]: 136%
- viability, T/C [23]: 123%
- viability, T/C [24]: 133%
- viability, T/C [25]: 95.3%
- viability, T/C [26]: 109%
- viability, T/C [27]: 130%
- viability, T/C [28]: 126%
- viability, T/C [29]: 118%
- viability, T/C [30]: 120%
- viability, T/C [31]: 106%
- viability, T/C [32]: 93.9%
- viability, T/C [33]: 106%
- viability, T/C [34]: 115%
- viability, T/C [35]: 127%
- viability, T/C [36]: 139%

SMILES: COc1cc2cc(C(=O)CCC(=O)O)sc2cc1OC + Nc1ccc(C#CCN(C(=O)Cc2ncc(C(F)(F)F)cc2C(F)(F)F)c2ccc(F)cc2)nn1
- IC50 (second compound 0.0316 µM): > 10 µM
- IC50 (second compound 0.1 µM): > 10 µM
- IC50 (second compound 0.316 µM): > 10 µM
- IC50 (second compound 1 µM): > 10 µM
- IC50 (second compound 3.16 µM): > 10 µM
- IC50 (second compound 10 µM): > 10 µM
- viability, T/C [1]: 119%
- viability, T/C [2]: 81%
- viability, T/C [3]: 82.3%
- viability, T/C [4]: 89.5%
- viability, T/C [5]: 94.8%
- viability, T/C [6]: 99.7%
- viability, T/C [7]: 101%
- viability, T/C [8]: 87.7%
- viability, T/C [9]: 84.3%
- viability, T/C [10]: 127%
- viability, T/C [11]: 82.2%
- viability, T/C [12]: 80.6%
- viability, T/C [13]: 109%
- viability, T/C [14]: 112%
- viability, T/C [15]: 104%
- viability, T/C [16]: 79.8%
- viability, T/C [17]: 104%
- viability, T/C [18]: 79.1%
- viability, T/C [19]: 86.4%
- viability, T/C [20]: 106%
- viability, T/C [21]: 102%
- viability, T/C [22]: 83%
- viability, T/C [23]: 117%
- viability, T/C [24]: 90.9%
- viability, T/C [25]: 105%
- viability, T/C [26]: 106%
- viability, T/C [27]: 98.9%
- viability, T/C [28]: 81.8%
- viability, T/C [29]: 85.7%
- viability, T/C [30]: 104%
- viability, T/C [31]: 82.5%
- viability, T/C [32]: 83.7%
- viability, T/C [33]: 86.4%
- viability, T/C [34]: 102%
- viability, T/C [35]: 87.5%
- viability, T/C [36]: 88%

SMILES: COc1ccc([C@@H](O)c2cc(-c3ncnc4cc(N5CCOCC5)ccc34)c(F)cc2Cl)nn1 + Nc1ccc(C#CCN(C(=O)Cc2ncc(C(F)(F)F)cc2C(F)(F)F)c2ccc(F)cc2)nn1
- IC50 (second compound 0.0316 µM): 5.25 µM
- IC50 (second compound 0.1 µM): 2.47 µM
- IC50 (second compound 0.316 µM): 4.85 µM
- IC50 (second compound 1 µM): 2.71 µM
- IC50 (second compound 3.16 µM): 3.24 µM
- IC50 (second compound 10 µM): 2.49 µM
- viability, T/C [1]: 87.8%
- viability, T/C [2]: 91.7%
- viability, T/C [3]: 72.4%
- viability, T/C [4]: 89%
- viability, T/C [5]: 59.4%
- viability, T/C [6]: 38%
- viability, T/C [7]: 78.3%
- viability, T/C [8]: 89.7%
- viability, T/C [9]: 71.6%
- viability, T/C [10]: 73.9%
- viability, T/C [11]: 43.2%
- viability, T/C [12]: 40%
- viability, T/C [13]: 93%
- viability, T/C [14]: 94.9%
- viability, T/C [15]: 71.4%
- viability, T/C [16]: 75.4%
- viability, T/C [17]: 57.4%
- viability, T/C [18]: 37.7%
- viability, T/C [19]: 113%
- viability, T/C [20]: 120%
- viability, T/C [21]: 81.1%
- viability, T/C [22]: 71%
- viability, T/C [23]: 49.3%
- viability, T/C [24]: 29.6%
- viability, T/C [25]: 98.6%
- viability, T/C [26]: 109%
- viability, T/C [27]: 82.8%
- viability, T/C [28]: 65.9%
- viability, T/C [29]: 55%
- viability, T/C [30]: 38.2%
- viability, T/C [31]: 104%
- viability, T/C [32]: 94.2%
- viability, T/C [33]: 87.9%
- viability, T/C [34]: 61.2%
- viability, T/C [35]: 46.8%
- viability, T/C [36]: 42.6%

SMILES: O=C(Nc1ccc(O)c(NS(=O)(=O)c2ccc(F)cc2)c1)c1ccc(-c2ccccc2)cc1 + Nc1ccc(C#CCN(C(=O)Cc2ncc(C(F)(F)F)cc2C(F)(F)F)c2ccc(F)cc2)nn1
- IC50 (second compound 0.0316 µM): > 10 µM
- IC50 (second compound 0.1 µM): > 10 µM
- IC50 (second compound 0.316 µM): > 10 µM
- IC50 (second compound 1 µM): > 10 µM
- IC50 (second compound 3.16 µM): > 10 µM
- IC50 (second compound 10 µM): > 10 µM
- viability, T/C [1]: 118%
- viability, T/C [2]: 105%
- viability, T/C [3]: 96.8%
- viability, T/C [4]: 114%
- viability, T/C [5]: 135%
- viability, T/C [6]: 87.8%
- viability, T/C [7]: 98.3%
- viability, T/C [8]: 123%
- viability, T/C [9]: 86.3%
- viability, T/C [10]: 118%
- viability, T/C [11]: 131%
- viability, T/C [12]: 94.7%
- viability, T/C [13]: 103%
- viability, T/C [14]: 113%
- viability, T/C [15]: 123%
- viability, T/C [16]: 114%
- viability, T/C [17]: 130%
- viability, T/C [18]: 106%
- viability, T/C [19]: 101%
- viability, T/C [20]: 109%
- viability, T/C [21]: 83.5%
- viability, T/C [22]: 109%
- viability, T/C [23]: 131%
- viability, T/C [24]: 91.9%
- viability, T/C [25]: 94.4%
- viability, T/C [26]: 98%
- viability, T/C [27]: 91%
- viability, T/C [28]: 99.7%
- viability, T/C [29]: 111%
- viability, T/C [30]: 106%
- viability, T/C [31]: 87.9%
- viability, T/C [32]: 82.4%
- viability, T/C [33]: 102%
- viability, T/C [34]: 105%
- viability, T/C [35]: 94.3%
- viability, T/C [36]: 87.9%
